29 compounds from US20060211755A1, “3-oxo-1, 3-dihydro-indazole-2-carboxylic acid amide derivatives as phospholipase inhibitors” (Eli Lilly and Company Patent Division, priority 2003, published 2006) can be followed below.

In the case of `CCCNC(=O)n1[nH]c2ccccc2c1=O` [Example 1, 3-Oxo-1,3-dihydro-indazole-2-carboxylic acid propylamide], the melting point (usually the temperature, or range, at which the solid turns liquid) is 153 to 155 °C.
Next, `CCCCCNC(=O)n1[nH]c2ccccc2c1=O` [Example 2, 3-Oxo-1,3-dihydro-indazole-2-carboxylic acid pentylamide]: 119 to 120 °C; `CC(C)CCCCNC(=O)n1[nH]c2ccccc2c1=O` [Example 5, 3-Oxo-1,3-dihydro-indazole-2-carboxylic acid (5-methyl-hexyl)-amide]: 134 to 136 °C; `Cc1ccccc1CNC(=O)n1[nH]c2ccccc2c1=O` [Example 16, 3-Oxo-1,3-dihydro-indazole-2-carboxylic acid 2-methyl-benzylamide]: 166 to 168 °C.
With `Cc1cccc(CNC(=O)n2[nH]c3ccccc3c2=O)c1` [Example 17, 3-Oxo-1,3-dihydro-indazole-2-carboxylic acid 3-methyl-benzylamide] the figure was 179 to 180 °C; with `COc1cccc(CNC(=O)n2[nH]c3ccccc3c2=O)c1` [Example 24, 3-Oxo-1,3-dihydro-indazole-2-carboxylic acid 3-methoxy-benzylamide], 186 to 188 °C.
Next, `Cc1ccc2c(=O)n(C(=O)NCc3ccccc3C)[nH]c2c1` [Example 45, 6-Methyl-3-oxo-1,3-dihydro-indazole-2-carboxylic acid 2-methyl-benzylamide]: 235 °C (dec.).
Consider `Cc1ccccc1CNC(=O)n1[nH]c2cccc(C(=O)O)c2c1=O` [Example 52, 2-(2-Methyl-benzylcarbamoyl)-3-oxo-2,3-dihydro-1H-indazole-4-carboxylic acid], for which the melting point was above 250 °C.
With `Cc1ccccc1CNC(=O)n1[nH]c2ccc(C(=O)O)cc2c1=O` [Example 53, 2-(2-Methyl-benzylcarbamoyl)-3-oxo-2,3-dihydro-1H-indazole-5-carboxylic acid] the figure was above 250 °C; with `Cc1ccccc1CNC(=O)n1[nH]c2c(C(=O)O)cccc2c1=O` [Example 55, 2-(2-Methyl-benzylcarbamoyl)-3-oxo-2,3-dihydro-1H-indazole-7-carboxylic acid], above 250 °C; with `Cc1ccc(F)cc1CNC(=O)n1[nH]c2cccc(C(=O)O)c2c1=O` [Example 57, 2-(5-Fluoro-2-methyl-benzylcarbamoyl)-3-oxo-2,3-dihydro-1H-indazole-4-carboxylic acid], 230 °C (dec.).
With `Cc1ccc(F)cc1CNC(=O)n1[nH]c2c(C(=O)O)cccc2c1=O` [Example 58, 2-(5-Fluoro-2-methyl-benzylcarbamoyl)-3-oxo-2,3-dihydro-1H-indazole-7-carboxylic acid] the figure was above 250 °C.
The compound `Cc1cccc(C)c1CNC(=O)n1[nH]c2cccc(C(=O)O)c2c1=O` [Example 59, 2-(2,6-Dimethyl-benzylcarbamoyl)-3-oxo-2,3-dihydro-1H-indazole-4-carboxylic acid] returned a melting point above 250 °C.
For `Cc1cccc(C)c1CNC(=O)n1[nH]c2c(C(=O)O)cccc2c1=O` [Example 60, 2-(2,6-Dimethyl-benzylcarbamoyl)-3-oxo-2,3-dihydro-1H-indazole-7-carboxylic acid], the melting point is above 250 °C.
Regarding `CCc1cccc(C)c1CNC(=O)n1[nH]c2cccc(C(=O)O)c2c1=O` [Example 61, 2-(2-Ethyl-6-methyl-benzylcarbamoyl)-3-oxo-2,3-dihydro-1H-indazole-4-carboxylic acid], the melting point was above 250 °C.
Take `CCc1cccc(C)c1CNC(=O)n1[nH]c2ccc(C(=O)O)cc2c1=O` [Example 62, 2-(2-Ethyl-6-methyl-benzylcarbamoyl)-3-oxo-2,3-dihydro-1H-indazole-5-carboxylic acid]: the melting point is above 250 °C.
The compound `CCc1cccc(C)c1CNC(=O)n1[nH]c2cc(C(=O)O)ccc2c1=O` [Example 63, 2-(2-Ethyl-6-methyl-benzylcarbamoyl)-3-oxo-2,3-dihydro-1H-indazole-6-carboxylic acid] returned a melting point above 250 °C.
With `CCc1cccc(C)c1CNC(=O)n1[nH]c2c(C(=O)O)cccc2c1=O` [Example 64, 2-(2-Ethyl-6-methyl-benzylcarbamoyl)-3-oxo-2,3-dihydro-1H-indazole-7-carboxylic acid] the figure was above 250 °C.
Next, `CCCCc1ccc(CNC(=O)n2[nH]c3cccc(C(=O)O)c3c2=O)c(C)c1` [Example 68, 2-(4-Butyl-2-methyl-benzylcarbamoyl)-3-oxo-2,3-dihydro-1H-indazole-4-carboxylic acid]: 173 to 175 °C; `CCc1cccc(CC)c1CNC(=O)n1[nH]c2cccc(C(=O)O)c2c1=O` [Example 69, 2-(2,6-Diethyl-benzylcarbamoyl)-3-oxo-2,3-dihydro-1H-indazole-4-carboxylic acid]: above 250 °C.
Next, `CCc1cccc(CC)c1CNC(=O)n1[nH]c2c(C(=O)O)cccc2c1=O` [Example 70, 2-(2,6-Diethyl-benzylcarbamoyl)-3-oxo-2,3-dihydro-1H-indazole-7-carboxylic acid]: above 250 °C; `CC(C)c1cccc(C(C)C)c1CNC(=O)n1[nH]c2c(C(=O)O)cccc2c1=O` [Example 72, 2-(2,6-Diisopropyl-benzylcarbamoyl)-3-oxo-2,3-dihydro-1H-indazole-7-carboxylic acid]: above 250 °C.
Take `O=C(O)c1cccc2[nH]n(C(=O)NCCCCc3ccccc3)c(=O)c12` [Example 75, 3-Oxo-2-(4-phenyl-butylcarbamoyl)-2,3-dihydro-1H-indazole-4-carboxylic acid]: the melting point is above 250 °C.
With `O=C(O)c1cccc2[nH]n(C(=O)NCCCCC3CCCCC3)c(=O)c12` [Example 76, 2-(4-Cyclohexyl-butylcarbamoyl)-3-oxo-2,3-dihydro-1H-indazole-4-carboxylic acid] the figure was 196 to 198 °C.
For `CCCCCCNC(=O)n1[nH]c2cccc(C(=O)O)c2c1=O` [Example 78, 2-Hexylcarbamoyl-3-oxo-2,3-dihydro-1H-indazole-4-carboxylic acid], the melting point is above 250 °C.
Regarding `CCc1cccc(C)c1CNC(=O)n1c(=O)c2cccc(C(=O)O)c2n1C` [Example 79, 2-(2-Ethyl-6-methyl-benzylcarbamoyl)-1-methyl-3-oxo-2,3-dihydro-1H-indazole-7-carboxylic acid], the melting point was above 250 °C.
The compound `CCc1cccc(C)c1CNC(=O)n1c(=O)c2cccc(C(=O)O)c2n1CC` [Example 80, 1-Ethyl-2-(2-ethyl-6-methyl-benzylcarbamoyl)-3-oxo-2,3-dihydro-1H-indazole-7-carboxylic acid] registered a melting point above 250 °C.
Next, `CCCn1c2c(C(=O)O)cccc2c(=O)n1C(=O)NCc1c(C)cccc1CC` [Example 81, 2-(2-Ethyl-6-methyl-benzylcarbamoyl)-3-oxo-1-propyl-2,3-dihydro-1H-indazole-7-carboxylic acid]: above 250 °C.
With `CCc1cccc(C)c1CNC(=O)n1c(=O)c2cccc(C(=O)O)c2n1CC(=O)O` [Example 82, 1-Carboxymethyl-2-(2-ethyl-6-methyl-benzylcarbamoyl)-3-oxo-2,3-dihydro-1H-indazole-7-carboxylic acid] the figure was 172 to 174 °C.
